Reference: PubChem BioAssay AID330 (DTP/NCI, 2004)
Values joined by “and” are separate entries in the source; they are usually repeats but may differ in a detail not shown here. Equal values may be shown once. Toxic doses and inconclusive results are not listed.

System: P388 leukemia ip, CD2F1 mice, survival T/C
Test: NCI In Vivo Anticancer Drug Screen. Data for tumor model P388 Leukemia (intraperitoneal) in CD2F1 (CDF1) mice
Conditions: endpoint: median survival time, higher = longer survival
Summary of the method: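 Mice carrying the transplanted tumor received test compound or vehicle. Survival was recorded in each group, and the value is the treated-group measurement divided by that of the vehicle-treated control group.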

COc1cc(NS(C)(=O)=O)ccc1Nc1c2ccccc2nc2ccccc12
T/C (dose: 0.25 mg/kg/injection, schedule: Q01DX009 (ip), vehicle: other): 119 % of control | T/C (dose: 0.52 mg/kg/injection, schedule: Q01DX009 (ip), vehicle: other): 151 % of control | T/C (dose: 0.86 mg/kg/injection, schedule: Q01DX009 (ip), vehicle: other): 163 % of control | T/C (dose: 1.0 mg/kg/injection, schedule: Q01DX005 (iv), vehicle: other): 120 % of control | T/C (dose: 1.0 mg/kg/injection, schedule: Q01DX009 (ip), vehicle: other): 157 % of control | T/C (dose: 1.0 mg/kg/injection, schedule: Q04DX003 (ip), vehicle: other): 118 % of control | T/C (dose: 1.44 mg/kg/injection, schedule: Q01DX009 (ip), vehicle: other): 173 % of control | T/C (dose: 1.5 mg/kg/injection, schedule: Q04DX003 (ip), vehicle: clinical formulation): 152 % of control | T/C (dose: 2.0 mg/kg/injection, schedule: Q01DX005 (ip), vehicle: other): 153 % of control and 163 % of control | T/C (dose: 2.0 mg/kg/injection, schedule: Q01DX005 (oral), vehicle: other): 111 % of control | T/C (dose: 2.0 mg/kg/injection, schedule: Q01DX009 (ip), vehicle: other): 175 % of control and 195 % of control | T/C (dose: 2.0 mg/kg/injection, schedule: Q04DX003 (oral), vehicle: other): 111 % of control | T/C (dose: 2.4 mg/kg/injection, schedule: Q01DX009 (ip), vehicle: other): 209 % of control | T/C (dose: 2.5 mg/kg/injection, schedule: Q04DX002 (ip), vehicle: clinical formulation): 153 % of control and 173 % of control | T/C (dose: 2.5 mg/kg/injection, schedule: Q04DX003 (ip), vehicle: other): 155 % of control | T/C (dose: 2.59 mg/kg/injection, schedule: Q04DX003 (ip), vehicle: clinical formulation): 167 % of control | T/C (dose: 2.59 mg/kg/injection, schedule: Q04DX003 (ip), vehicle: saline): 168 % of control | T/C (dose: 2.59 mg/kg/injection, schedule: Q04DX003 (ip), vehicle: water): 161 % of control and 163 % of control and 179 % of control | T/C (dose: 2.6 mg/kg/injection, schedule: Q04DX002 (ip), vehicle: other): 160 % of control | T/C (dose: 3.0 mg/kg/injection, schedule: Q04DX003 (ip), vehicle: clinical formulation): 160 % of control | T/C (dose: 4.0 mg/kg/injection, schedule: Q01DX005 (ip), vehicle: other): 183 % of control and 207 % of control | T/C (dose: 4.0 mg/kg/injection, schedule: Q01DX005 (iv), vehicle: other): 154 % of control | T/C (dose: 4.0 mg/kg/injection, schedule: Q01DX005 (oral), vehicle: other): 120 % of control | T/C (dose: 4.0 mg/kg/injection, schedule: Q01DX009 (ip), vehicle: other): 192 % of control and 223 % of control and 90 % of control | T/C (dose: 4.0 mg/kg/injection, schedule: Q04DX003 (ip), vehicle: other): 163 % of control | T/C (dose: 4.0 mg/kg/injection, schedule: Q04DX003 (oral), vehicle: other): 119 % of control | T/C (dose: 4.3 mg/kg/injection, schedule: Q04DX002 (ip), vehicle: other): 179 % of control | T/C (dose: 4.32 mg/kg/injection, schedule: Q04DX003 (ip), vehicle: clinical formulation): 173 % of control | T/C (dose: 4.32 mg/kg/injection, schedule: Q04DX003 (ip), vehicle: saline): 175 % of control | T/C (dose: 4.32 mg/kg/injection, schedule: Q04DX003 (ip), vehicle: water): 169 % of control and 176 % of control and 180 % of control | T/C (dose: 5.0 mg/kg/injection, schedule: Q04DX002 (ip), vehicle: clinical formulation): 172 % of control and 186 % of control | T/C (dose: 5.0 mg/kg/injection, schedule: Q04DX003 (ip), vehicle: other): 156 % of control and 161 % of control and 193 % of control | T/C (dose: 6.0 mg/kg/injection, schedule: Q04DX003 (ip), vehicle: clinical formulation): 203 % of control | T/C (dose: 6.0 mg/kg/injection, schedule: Q04DX003 (ip), vehicle: saline with Tween-80): 175 % of control | T/C (dose: 6.25 mg/kg/injection, schedule: Q04DX002 (oral), vehicle: other): 101 % of control and 106 % of control | T/C (dose: 7.2 mg/kg/injection, schedule: Q04DX003 (ip), vehicle: clinical formulation): 216 % of control | T/C (dose: 7.2 mg/kg/injection, schedule: Q04DX003 (ip), vehicle: saline): 214 % of control | T/C (dose: 7.2 mg/kg/injection, schedule: Q04DX003 (ip), vehicle: water): 197 % of control and 204 % of control and 219 % of control | T/C (dose: 8.0 mg/kg/injection, schedule: Q01DX005 (ip), vehicle: other): 193 % of control | T/C (dose: 8.0 mg/kg/injection, schedule: Q04DX003 (ip), vehicle: other): 158 % of control and 204 % of control | T/C (dose: 8.0 mg/kg/injection, schedule: Q04DX003 (ip), vehicle: saline with Tween-80): 182 % of control and 235 % of control | T/C (dose: 8.0 mg/kg/injection, schedule: Q04DX003 (oral), vehicle: other): 123 % of control | T/C (dose: 10.0 mg/kg/injection, schedule: Q04DX002 (ip), vehicle: clinical formulation): 216 % of control and 238 % of control | T/C (dose: 10.0 mg/kg/injection, schedule: Q04DX003 (ip), vehicle: other): 182 % of control and 204 % of control and 245 % of control | T/C (dose: 10.8 mg/kg/injection, schedule: Q01DX001 (ip), vehicle: other): 153 % of control | T/C (dose: 12.0 mg/kg/injection, schedule: Q04DX003 (ip), vehicle: clinical formulation): 207 % of control and 228 % of control | T/C (dose: 12.0 mg/kg/injection, schedule: Q04DX003 (ip), vehicle: saline): 261 % of control | T/C (dose: 12.0 mg/kg/injection, schedule: Q04DX003 (ip), vehicle: water): 230 % of control and 231 % of control | T/C (dose: 12.5 mg/kg/injection, schedule: Q04DX002 (oral), vehicle: other): 107 % of control and 117 % of control | T/C (dose: 16.0 mg/kg/injection, schedule: Q04DX003 (ip), vehicle: other): 193 % of control and 245 % of control | T/C (dose: 18.0 mg/kg/injection, schedule: Q01DX001 (ip), vehicle: other): 165 % of control | T/C (dose: 18.0 mg/kg/injection, schedule: Q04DX003 (ip), vehicle: saline with Tween-80): 191 % of control and 264 % of control | T/C (dose: 20.0 mg/kg/injection, schedule: Q01DX001 (ip), vehicle: saline with Tween-80): 117 % of control | T/C (dose: 20.0 mg/kg/injection, schedule: Q04DX002 (ip), vehicle: clinical formulation): 281 % of control | T/C (dose: 22.5 mg/kg/injection, schedule: Q04DX003 (ip), vehicle: saline with Tween-80): 198 % of control | T/C (dose: 25.0 mg/kg/injection, schedule: Q04DX002 (oral), vehicle: other): 120 % of control | T/C (dose: 25.0 mg/kg/injection, schedule: Q04DX003 (ip), vehicle: saline with Tween-80): 161 % of control | T/C (dose: 30.0 mg/kg/injection, schedule: Q01DX001 (ip), vehicle: other): 180 % of control | T/C (dose: 30.0 mg/kg/injection, schedule: Q01DX001 (ip), vehicle: saline with Tween-80): 120 % of control | T/C (dose: 32.0 mg/kg/injection, schedule: Q04DX003 (oral), vehicle: other): 172 % of control | T/C (dose: 40.0 mg/kg/injection, schedule: Q01DX001 (ip), vehicle: saline with Tween-80): 228 % of control | T/C (dose: 40.0 mg/kg/injection, schedule: Q04DX003 (ip), vehicle: other): 86 % of control | T/C (dose: 45.0 mg/kg/injection, schedule: Q04DX003 (ip), vehicle: saline with Tween-80): 187 % of control and 222 % of control and 274 % of control | T/C (dose: 50.0 mg/kg/injection, schedule: Q01DX001 (ip), vehicle: saline with Tween-80): 124 % of control | T/C (dose: 50.0 mg/kg/injection, schedule: Q04DX002 (oral), vehicle: other): 151 % of control and 168 % of control | T/C (dose: 50.0 mg/kg/injection, schedule: Q04DX003 (oral), vehicle: other): 91 % of control | T/C (dose: 60.0 mg/kg/injection, schedule: Q01DX001 (ip), vehicle: saline with Tween-80): 252 % of control
